Source: US7868204B2, “Inhibitors of histone deacetylase” (MethylGene Inc., priority 2001, dated 2011)
Read-outs that look alike come from different tables or passages of the source.

Tests used:
[1] = system: HCT116 cells; experiment: MTT assay; type: cell-based; conditions: Homo sapiens, HCT116 cells, 72 hours
How it was run: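 Read-out: MTT (0.5 mg/ml final, 4 h) after solubilization in 50% DMF/20% SDS, pH 4.7, with OD translated into cell number via the line's growth curve. Compound treatment lasted 72 h at 37 °C in 5% CO2, starting a day after plating.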

[2] = system: acetylated histone H-4 in T24 human bladder cancer cells; experiment: Histone H4 acetylation in whole cells by immunoblots; type: cell-based; conditions: 16 h
How it was run: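 Acetylated histone H4 was quantified by densitometry of ECL-developed immunoblots, probed with a polyclonal antibody, of […] total histone from T24 cultures exposed 16 h to HDAC inhibitors.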

[3] = biological target: T1, cloned recombinant human HDAC-1 (Homo sapiens, UniProt Q13547); experiment: Human HDAC-1 enzyme inhibition, Assay 1 ([3H]-acetylated histone substrate, scintillation counting); type: biochemical
T1 construct: made in house; host or cells: Baculovirus insect cell expression system
T1 sequence (Q13547 whole entry): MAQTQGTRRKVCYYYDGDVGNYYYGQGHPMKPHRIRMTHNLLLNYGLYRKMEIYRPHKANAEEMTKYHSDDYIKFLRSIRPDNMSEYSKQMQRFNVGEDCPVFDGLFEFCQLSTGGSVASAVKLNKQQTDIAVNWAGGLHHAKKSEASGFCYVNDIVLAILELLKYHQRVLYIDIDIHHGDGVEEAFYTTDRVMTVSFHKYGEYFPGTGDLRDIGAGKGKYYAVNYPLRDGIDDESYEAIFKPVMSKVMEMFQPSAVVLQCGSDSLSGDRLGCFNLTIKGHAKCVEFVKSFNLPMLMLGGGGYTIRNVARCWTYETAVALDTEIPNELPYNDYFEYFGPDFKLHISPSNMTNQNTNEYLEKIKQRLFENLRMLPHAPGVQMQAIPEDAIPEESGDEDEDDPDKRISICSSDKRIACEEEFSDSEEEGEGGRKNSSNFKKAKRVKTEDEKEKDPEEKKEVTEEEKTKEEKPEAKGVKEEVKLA
How it was run: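 Activity read as [3H]-acetic acid liberated from labeled substrate, ethyl acetate-extracted and scintillation-counted. Compounds preincubated 30 min at 4° C. with baculovirus-expressed, purified human HDAC-1. Dose-response curves give IC50 as concentration producing fifty percent of maximal inhibition.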

[4] = T-24, Table 5F, read-out: H4 Ac (T24) EC50
[5] = Table 5F, read-out: Human HDAC-1 IC50
[6] = T-24, Table 5b, read-out: H4Ac (T24) EC50
[7] = Table 5b, read-out: Human HDAC-1 IC50
[8] = T-24, Table 5d, read-out: H4Ac(T24) EC50
[9] = Table 5d, read-out: HDAC-1 IC50

| SMILES | IC50 ([1]; HCT-116, 72 h, Table 5F) | EC50 [2, 4] | IC50 [3, 5] | IC50 ([1]; HCT-116, Table 5d) | EC50 [2, 8] | IC50 [3, 9] | further results |
| --- | --- | --- | --- | --- | --- | --- | --- |
| COc1ccc(-c2cc(Cl)nc(NCc3ccc(C(=O)Nc4ccccc4N)cc3)n2)cc1OC [Cpd 439] | 0.4 µM | 1 µM | 3 µM | – | – | – | – |
| COc1cc(NCc2ccc(C(=O)Nc3ccccc3N)cc2)c(C(C)=O)cc1OC [Cpd 441, 4-[(2-Acetyl-4,5-dimethoxy-phenylamino)-methyl]-N-(2-amino-phenyl)-benzamide] | 0.8 µM | 2 µM | 2 µM | – | – | – | – |
| COc1ccc(Nc2ccnc(NCc3ccc(C(=O)Nc4ccccc4N)cc3)n2)cc1OC [Cpd 442, N-(2-Amino-phenyl)-4-{[4-(3,4-dimethoxy-phenylamino)-pyrimidin-2-ylamino]-methyl}-benzamide] | 0.4 µM | 1 µM | 17 µM | – | – | – | – |
| CN(C)c1nc2cc(NCc3ccc(C(=O)Nc4ccccc4N)cc3)ccc2s1 [Cpd 448, N-(2-Amino-phenyl)-4-[(2-dimethylamino-benzothiazol-5-ylamino)-methyl]-benzamide] | 0.2 µM | 2 µM | 3 µM | – | – | – | – |
| Nc1ccccc1NC(=O)c1ccc(CNc2ccc3[nH]c(SCc4cccnc4)nc3c2)cc1 [Cpd 451] | 0.2 µM | 3 µM | 4 µM | – | – | – | – |
| Nc1ccccc1NC(=O)c1ccc(CNc2ccc3oc(SCc4cccnc4)nc3c2)cc1 [Cpd 452, N-(2-Amino-phenyl)-4-{[2-(pyridin-3-ylmethylsulfanyl)-benzooxazol-5-ylamino]-methyl}-benzamide] | 0.3 µM | 2 µM | 3 µM | – | – | – | – |
| COc1ccc(NCc2ccc(C(=O)Nc3cc(F)c(F)cc3N)cc2)cc1OC [Cpd 454, N-(2-Amino-4,5-difluoro-phenyl)-4-[(3,4-dimethoxy-phenylamino)-methyl]-benzamide] | 2 µM | 5 µM | 4 µM | – | – | – | – |
| COCCN1C(=O)c2ccc(NCc3ccc(C(=O)Nc4ccccc4N)cc3)cc2C1=O [Cpd 458, N-(2-Amino-phenyl)-4-([2-(2-methoxy-ethyl)-1,3-dioxo-2,3-dihydro-1H-isoindol-5-ylamino]-methyl}-benzamide] | 0.3 µM | 2 µM | 3 µM | – | – | – | – |
| CN1C(=O)C2(OCCO2)c2cc(NCc3ccc(C(=O)Nc4ccccc4N)cc3)ccc21 [Cpd 459] | 0.3 µM | 1 µM | 4 µM | – | – | – | – |
| Nc1ccccc1NC(=O)c1ccc(NCCNc2ccccc2)nc1 [Cpd 460, N-(2-Amino-phenyl)-6-(2-phenylamino-ethylamino)-nicotinamide] | 1 µM | 1 µM | 3 µM | – | – | – | – |
| Cn1c(=O)c2cc(NCc3ccc(C(=O)Nc4ccccc4N)cc3)ccc2n(C)c1=O [Cpd 461, N-(2-Amino-phenyl)-4-[(1,3-dimethyl-2,4-dioxo-1,2,3,4-tetrahydro-quinazolin-6-ylamino)-methyl]-benzamide] | 0.3 µM | 1 µM | 1.4 µM | – | – | – | – |
| Cn1c2ccc(NCc3ccc(C(=O)Nc4ccccc4N)cc3)cc2c2nc3ccccc3nc21 [Cpd 462] | 0.3 µM | 1 µM | 4 µM | – | – | – | – |
| Nc1ccccc1NC(=O)c1ccc(-c2ccc(CNCc3ccccn3)s2)cc1 [Cpd 466] | 2 µM | 1 µM | 3 µM | – | – | – | – |
| Nc1ccccc1NC(=O)c1ccc(CNc2ncc(Br)s2)cc1 [Cpd 467, N-(2-Amino-phenyl)-4-[(5-bromo-thiazol-2-ylamino)-methyl]-benzamide] | 0.4 µM | 2 µM | 4 µM | – | – | – | – |
| Nc1ccccc1NC(=O)c1ccc(CNc2cc(-c3ccccc3)[nH]n2)cc1 [Cpd 468, N-(2-Amino-phenyl)-4-[(5-phenyl-1H-pyrazol-3-ylamino)-methyl]-benzamide] | 8 µM | < 1 µM | 2 µM | – | – | – | – |
| Nc1nc(NCCCc2ccccc2)nc(NCc2ccc(C(=O)Nc3ccccc3N)cc2)n1 [Cpd 470] | – | – | – | – | – | – | IC50 ([1]; HCT-116, 72 h, Table 5b): 0.7 µM; EC50 [2, 6]: 3 µM; IC50 [3, 7]: 2 µM |

| SMILES | IC50 ([1]; HCT-116, 72 h, Table 5F) | EC50 [2, 4] | IC50 [3, 5] | IC50 ([1]; HCT-116, Table 5d) | EC50 [2, 8] | IC50 [3, 9] | further results |
| --- | --- | --- | --- | --- | --- | --- | --- |
| Nc1ccccc1NC(=O)c1ccc(CNc2nc(NCCc3ccccc3)nc(NC3CC3)n2)cc1 [Cpd 471] | – | – | – | – | – | – | IC50 ([1]; HCT-116, 72 h, Table 5b): 1 µM; EC50 [2, 6]: 3 µM; IC50 [3, 7]: 0.4 µM |
| Nc1ccccc1NC(=O)c1ccc(CNc2nc(NCC3CC3)nc(NC3Cc4ccccc4C3)n2)cc1 [Cpd 472] | – | – | – | – | – | – | IC50 ([1]; HCT-116, 72 h, Table 5b): 1 µM; EC50 [2, 6]: 1 µM; IC50 [3, 7]: 3 µM |
| COCCNc1nc(NCCc2ccccc2)nc(NCc2ccc(C(=O)Nc3ccccc3N)cc2)n1 [Cpd 474] | – | – | – | – | – | – | IC50 ([1]; HCT-116, 72 h, Table 5b): 1 µM; EC50 [2, 6]: 1 µM; IC50 [3, 7]: 3 µM |
| COc1ccc(CCNc2nc(NCc3ccc(C(=O)Nc4ccccc4N)cc3)nc(NC3CC3)n2)cc1 [Cpd 476] | – | – | – | – | – | – | IC50 ([1]; HCT-116, 72 h, Table 5b): 1 µM; EC50 [2, 6]: 2 µM; IC50 [3, 7]: 2 µM |
| COc1cc(OC)nc(NCc2ccc(/C=C/C(=O)Nc3ccccc3N)cc2)n1 [Cpd 492, N-(2-Amino-phenyl)-3-{4-[(4,6-dimethoxy-pyrimidin-2-ylamino)-methyl]-phenyl}-acrylamide] | – | – | – | 9 µM | 10 µM | 4 µM | – |
| COc1cc(N(Cc2ccc(/C=C/C(=O)Nc3ccccc3N)cc2)Cc2cc3ccccc3[nH]2)cc(OC)c1OC [Cpd 499, N-(2-Amino-phenyl)-3-{4-([(1 H-indol-2-ylmethyl)-(3,4,5-trimethoxy-phenyl)-amino]-methyl}-phenyl)-acrylamide] | – | – | – | 2 µM | > 25 µM | > 25 µM | – |
| COc1cc(NC(C)c2ccc(/C=C/C(=O)Nc3ccccc3N)cc2)cc(OC)c1OC (stereo not drawn) [Cpd 518, N-(2-Amino-phenyl)-3-{4-[1-(3,4,5-trimethoxy-phenylamino)-ethyl]-phenyl}-acrylamide] | – | – | – | 2 µM | 5 µM | 4 µM | – |
| Nc1ccccc1NC(=O)/C=C/c1ccc(NCCNc2ncccn2)nc1 [Cpd 521, N-(2-Amino-phenyl)-3-{6-[2-(pyrimidin-2-ylamino)-ethylamino]-pyridin-3-yl}-acrylamide] | – | – | – | 2 µM | 10 µM | 5 µM | – |
| COc1cc(N(CCN2CCOCC2)Cc2ccc(/C=C/C(=O)Nc3ccccc3N)cc2)cc(OC)c1OC [Cpd 523, N-(2-Amino-phenyl)-3-(4-{[(2-morpholin-4-yl-ethyl)-(3,4,5-trimethoxy-phenyl)-amino]-methyl}-phenyl)-acrylamide] | – | – | – | 6 µM | 10 µM | 8 µM | – |
| Nc1ccccc1NC(=O)/C=C/c1ccc(NCc2cccc(O)c2)nc1 [Cpd 524, N-(2-Amino-phenyl)-3-[6-(3-hydroxy-benzylamino)-pyridin-3-yl]-acrylamide] | – | – | – | 2 µM | 3 µM | 3 µM | – |
| Nc1ccccc1NC(=O)/C=C/c1ccc(NCc2cccc(OCC(F)(F)F)c2)nc1 [Cpd 525, N-(2-Amino-phenyl)-3-{6-[3-(2,2,2-trifluoro-ethoxy)-benzylamino]-pyridin-3-yl}-acrylamide] | – | – | – | 4 µM | 5 µM | 3 µM | – |
| CN1CCN(c2ccc(NCc3ccc(/C=C/C(=O)Nc4ccccc4N)cc3)cc2C(F)(F)F)CC1 [Cpd 526] | – | – | – | 0.8 µM | 1 µM | 2 µM | – |
| Nc1ccccc1NC(=O)/C=C/c1ccc(CNc2ccc(Cc3ccncc3)cc2)cc1 [Cpd 531, N-(2-Amino-phenyl)-3-{4-[(4-pyridin-4-ylmethyl-phenylamino)-methyl]-phenyl}-acrylamide] | – | – | – | 2 µM | 20 µM | – | IC50 ([3]; HDAC-1 IC50, Table 5d): 3 µM |
| COc1cc(/C=C\c2ccc(/C=C/C(=O)Nc3ccccc3N)cc2)cc(OC)c1OC [Cpd 537, N-(2-Amino-phenyl)-3-{4-[2-(3,4,5-trimethoxy-phenyl)-vinyl]-phenyl}-acrylamide] | – | – | – | 2 µM | > 25 µM | 11 µM | – |
| CSc1ccc(NCc2ccc(/C=C/C(=O)Nc3ccccc3N)cc2)cc1 [Cpd 556, N-(2-Amino-phenyl)-3-{4-[(4-methylsulfanyl-phenylamino)-methyl]-phenyl}acrylamide] | – | – | – | 0.4 µM | 15 µM | 1 µM | – |
